# From US20240382629A1, “HETEROBIVALENT AND HOMOBIVALENT AGENTS TARGETING FIBROBLAST ACTIVATION PROTEIN ALPHA AND/OR PROSTATE-SPECIFIC MEMBRANE ANTIGEN” (The Johns Hopkins University, priority 2021, published 2024)
# Values joined by “and” are separate entries in the source; they are usually repeats but may differ in a detail not shown here. Identical values can stand only once.
# Assay: Biodistribution of [^18F]JHU1221823 with cold FAPI-04 blocker
# Assay type: in vivo, mouse
# Conditions: for % ID/g Bladder / % ID/g Blood / % ID/g Brain / % ID/g Fat / % ID/g Femur / % ID/g Heart / % ID/g Kidney / % ID/g Large intestine / % ID/g Liver / % ID/g Lung / % ID/g Muscle / % ID/g Pancreas / % ID/g Salivary gland / % ID/g Small intestine / % ID/g Spleen / % ID/g Stomach / % ID/g Tumor: single mouse
smiles,measurement,setting,value
N#C[C@@H]1CCCN1C(=O)CNC(=O)c1ccnc2ccc(OCCCNC(=O)CCOCCOCCOCCOCCNC(=O)[C@H](CCCCNC(=O)c3ccc([18F])nc3)NC(=O)CN3CCN(CC(=O)O)CCN(CC(=O)O)CCN(CC(=O)O)CC3)cc12 [[^18F]JHU1221823],% ID/g Mean Bladder,30 min,2.49 % ID/g
same,% ID/g Bladder,30 min,1.53 % ID/g and 3.45 % ID/g
same,% ID/g Mean Bladder,60 min,5.51 % ID/g
same,% ID/g Bladder,60 min,3.64 % ID/g and 7.58 % ID/g
same,% ID/g Mean Bladder,"+ Blocker Cold FAPI-04, 60 min",2.33 % ID/g
same,% ID/g Bladder,"+ Blocker Cold FAPI-04, 60 min",2.62 % ID/g and 2.04 % ID/g
same,% ID/g Mean Blood,30 min,10.81 % ID/g
same,% ID/g Blood,30 min,11.89 % ID/g and 9.72 % ID/g
same,% ID/g Mean Blood,60 min,10.03 % ID/g
same,% ID/g Blood,60 min,9.50 % ID/g and 10.76 % ID/g
same,% ID/g Mean Blood,"+ Blocker Cold FAPI-04, 60 min",0.25 % ID/g
same,% ID/g Blood,"+ Blocker Cold FAPI-04, 60 min",0.22 % ID/g and 0.28 % ID/g
same,% ID/g Mean Brain,30 min,0.29 % ID/g
same,% ID/g Brain,30 min,0.26 % ID/g and 0.31 % ID/g
same,% ID/g Mean Brain,60 min,0.45 % ID/g
same,% ID/g Brain,60 min,0.40 % ID/g and 0.50 % ID/g
same,% ID/g Mean Brain,"+ Blocker Cold FAPI-04, 60 min",0.09 % ID/g
same,% ID/g Brain,"+ Blocker Cold FAPI-04, 60 min",0.06 % ID/g and 0.11 % ID/g
same,% ID/g Mean Fat,30 min,0.42 % ID/g
same,% ID/g Fat,30 min,0.41 % ID/g and 0.43 % ID/g
same,% ID/g Mean Fat,60 min,0.56 % ID/g
same,% ID/g Fat,60 min,0.53 % ID/g and 0.58 % ID/g
same,% ID/g Mean Fat,"+ Blocker Cold FAPI-04, 60 min",0.21 % ID/g
same,% ID/g Fat,"+ Blocker Cold FAPI-04, 60 min",0.15 % ID/g and 0.27 % ID/g
same,% ID/g Mean Femur,30 min,3.50 % ID/g
same,% ID/g Femur,30 min,3.95 % ID/g and 3.45 % ID/g
same,% ID/g Mean Femur,60 min,3.54 % ID/g
same,% ID/g Femur,60 min,3.21 % ID/g and 3.87 % ID/g
same,% ID/g Mean Femur,"+ Blocker Cold FAPI-04, 60 min",1.78 % ID/g
same,% ID/g Femur,"+ Blocker Cold FAPI-04, 60 min",0.98 % ID/g and 2.58 % ID/g
same,% ID/g Mean Heart,30 min,5.01 % ID/g
same,% ID/g Heart,30 min,5.25 % ID/g and 4.76 % ID/g
same,% ID/g Mean Heart,60 min,4.52 % ID/g
same,% ID/g Heart,60 min,4.67 % ID/g and 4.58 % ID/g
same,% ID/g Mean Heart,"+ Blocker Cold FAPI-04, 60 min",0.28 % ID/g
same,% ID/g Heart,"+ Blocker Cold FAPI-04, 60 min",0.22 % ID/g and 0.33 % ID/g
same,% ID/g Mean Kidney,30 min,3.17 % ID/g
same,% ID/g Kidney,30 min,3.37 % ID/g and 2.96 % ID/g
same,% ID/g Mean Kidney,60 min,2.75 % ID/g
same,% ID/g Kidney,60 min,2.76 % ID/g and 2.75 % ID/g
same,% ID/g Mean Kidney,"+ Blocker Cold FAPI-04, 60 min",1.77 % ID/g
same,% ID/g Kidney,"+ Blocker Cold FAPI-04, 60 min",1.85 % ID/g and 1.69 % ID/g
same,% ID/g Mean Large intestine,30 min,2.14 % ID/g
same,% ID/g Large intestine,30 min,1.61 % ID/g and 2.67 % ID/g
same,% ID/g Mean Large intestine,60 min,5.58 % ID/g
same,% ID/g Large intestine,60 min,1.70 % ID/g and 5.45 % ID/g
same,% ID/g Mean Large intestine,"+ Blocker Cold FAPI-04, 60 min",0.47 % ID/g
same,% ID/g Large intestine,"+ Blocker Cold FAPI-04, 60 min",0.41 % ID/g and 0.52 % ID/g
same,% ID/g Mean Liver,30 min,2.44 % ID/g
same,% ID/g Liver,30 min,2.58 % ID/g and 2.30 % ID/g
same,% ID/g Mean Liver,60 min,2.62 % ID/g
same,% ID/g Liver,60 min,2.49 % ID/g and 2.75 % ID/g
same,% ID/g Mean Liver,"+ Blocker Cold FAPI-04, 60 min",0.44 % ID/g
same,% ID/g Liver,"+ Blocker Cold FAPI-04, 60 min",0.35 % ID/g and 0.51 % ID/g
same,% ID/g Mean Lung,30 min,6.38 % ID/g
same,% ID/g Lung,30 min,6.92 % ID/g and 5.83 % ID/g
same,% ID/g Mean Lung,60 min,6.05 % ID/g
same,% ID/g Lung,60 min,5.36 % ID/g and 6.75 % ID/g
same,% ID/g Mean Lung,"+ Blocker Cold FAPI-04, 60 min",0.72 % ID/g
same,% ID/g Lung,"+ Blocker Cold FAPI-04, 60 min",0.54 % ID/g and 0.89 % ID/g
same,% ID/g Mean Muscle,30 min,1.73 % ID/g
same,% ID/g Muscle,30 min,1.74 % ID/g and 1.71 % ID/g
same,% ID/g Mean Muscle,60 min,1.75 % ID/g
same,% ID/g Muscle,60 min,1.76 % ID/g and 1.75 % ID/g
same,% ID/g Mean Muscle,"+ Blocker Cold FAPI-04, 60 min",0.48 % ID/g
same,% ID/g Muscle,"+ Blocker Cold FAPI-04, 60 min",0.25 % ID/g and 0.61 % ID/g
same,% ID/g Mean Pancreas,30 min,3.13 % ID/g
same,% ID/g Pancreas,30 min,3.58 % ID/g and 2.88 % ID/g
same,% ID/g Mean Pancreas,60 min,3.70 % ID/g
same,% ID/g Pancreas,60 min,5.44 % ID/g and 3.95 % ID/g
same,% ID/g Mean Pancreas,"+ Blocker Cold FAPI-04, 60 min",0.37 % ID/g
same,% ID/g Pancreas,"+ Blocker Cold FAPI-04, 60 min",0.27 % ID/g and 0.46 % ID/g
same,% ID/g Mean Salivary gland,30 min,8.51 % ID/g
same,% ID/g Salivary gland,30 min,7.35 % ID/g and 9.57 % ID/g
same,% ID/g Mean Salivary gland,60 min,8.97 % ID/g
same,% ID/g Salivary gland,60 min,9.14 % ID/g and 8.79 % ID/g
same,% ID/g Mean Salivary gland,"+ Blocker Cold FAPI-04, 60 min",0.42 % ID/g
same,% ID/g Salivary gland,"+ Blocker Cold FAPI-04, 60 min",0.37 % ID/g and 0.48 % ID/g
same,% ID/g Mean Small intestine,30 min,2.78 % ID/g
same,% ID/g Small intestine,30 min,3.08 % ID/g and 2.48 % ID/g
same,% ID/g Mean Small intestine,60 min,5.18 % ID/g
same,% ID/g Small intestine,60 min,8.18 % ID/g and 3.18 % ID/g
same,% ID/g Mean Small intestine,"+ Blocker Cold FAPI-04, 60 min",0.99 % ID/g
same,% ID/g Small intestine,"+ Blocker Cold FAPI-04, 60 min",0.91 % ID/g and 1.06 % ID/g
same,% ID/g Mean Spleen,30 min,2.08 % ID/g
same,% ID/g Spleen,30 min,2.08 % ID/g and 2.12 % ID/g
same,% ID/g Mean Spleen,60 min,2.35 % ID/g
same,% ID/g Spleen,60 min,2.25 % ID/g and 2.45 % ID/g
same,% ID/g Mean Spleen,"+ Blocker Cold FAPI-04, 60 min",0.51 % ID/g
same,% ID/g Spleen,"+ Blocker Cold FAPI-04, 60 min",0.29 % ID/g and 0.38 % ID/g
same,% ID/g Mean Stomach,30 min,1.52 % ID/g
same,% ID/g Stomach,30 min,1.84 % ID/g and 1.21 % ID/g
same,% ID/g Mean Stomach,60 min,1.68 % ID/g
same,% ID/g Stomach,60 min,1.68 % ID/g and 1.57 % ID/g
same,% ID/g Mean Stomach,"+ Blocker Cold FAPI-04, 60 min",0.34 % ID/g
same,% ID/g Stomach,"+ Blocker Cold FAPI-04, 60 min",0.28 % ID/g and 0.40 % ID/g
same,% ID/g Mean Tumor,30 min,3.11 % ID/g
same,% ID/g Tumor,30 min,2.90 % ID/g and 3.32 % ID/g
same,% ID/g Mean Tumor,60 min,6.20 % ID/g
same,% ID/g Tumor,60 min,5.22 % ID/g and 7.17 % ID/g
same,% ID/g Mean Tumor,"+ Blocker Cold FAPI-04, 60 min",1.04 % ID/g
same,% ID/g Tumor,"+ Blocker Cold FAPI-04, 60 min",0.89 % ID/g and 1.19 % ID/g
